“And” between values parts separate entries of the source, which are not always exact repeats. Equal values may be shown once.
Tests used:
MATE1 = target: T1, MATE1 (Homo sapiens, UniProt Q96FL8); assay: In vitro inhibition of MATE1 transporter; assay type: in vitro ADME
T1 sequence (Q96FL8 1-570): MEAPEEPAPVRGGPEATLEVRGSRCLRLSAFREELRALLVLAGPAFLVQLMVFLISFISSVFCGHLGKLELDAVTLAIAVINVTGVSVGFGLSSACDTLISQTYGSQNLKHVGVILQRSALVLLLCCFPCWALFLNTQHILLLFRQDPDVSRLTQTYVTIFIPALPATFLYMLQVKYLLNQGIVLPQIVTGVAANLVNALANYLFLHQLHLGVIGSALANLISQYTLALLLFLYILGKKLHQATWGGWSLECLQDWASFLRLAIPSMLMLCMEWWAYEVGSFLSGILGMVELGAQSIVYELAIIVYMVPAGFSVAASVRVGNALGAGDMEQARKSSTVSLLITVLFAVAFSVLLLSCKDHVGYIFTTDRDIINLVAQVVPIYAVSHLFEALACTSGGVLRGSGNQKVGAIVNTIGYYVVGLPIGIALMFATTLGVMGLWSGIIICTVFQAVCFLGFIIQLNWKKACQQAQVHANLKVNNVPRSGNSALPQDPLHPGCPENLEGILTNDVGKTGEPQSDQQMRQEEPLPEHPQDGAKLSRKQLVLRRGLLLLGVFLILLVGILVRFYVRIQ

MATE2K = MATE2K (Homo sapiens, UniProt Q86VL8); assay: In vitro inhibition of MATE2K transporter; assay type: in vitro ADME
CYP1A2 = assay: In vitro enzyme activity / mRNA induction in human hepatocytes; assay type: in vitro ADME
[1] = Clinical plasma concentration of tucatinib; assay type: in vivo; conditions: human, read-out: Mean clinical maximum observed concentration (Cmax)
[2] = target: bile salt export pump (BSEP) (Homo sapiens, UniProt O95342); assay: In vitro inhibition of BSEP activity; assay type: in vitro ADME
CYP3A4 [3] = target: T2, CYP3A4 (Homo sapiens, UniProt P08684); assay: Ki determination in pooled human liver microsomes, midazolam 1'-hydroxylase (Example 5); assay type: in vitro ADME
Description: (§1) The objective of this study was to evaluate in vitro the Ki of tucatinib of the following human hepatic cytochrome P450 (CYP) enzymes (CYP2C8, CYP2C9, and CYP3A4) and UGT1A1. […] Pooled human liver microsomes (HLM) from 150 individuals (79 males and 71 females) were obtained from BioreclamationIVT (Baltimore, Md.) and stored at approximately −70° C. The microsomes were characterized by the supplier for total protein and selected cytochrome P450 activities. […] The final organic solvent contribution was ≤1%. Incubations were terminated by the addition of chilled acetonitrile containing a stable isotope-labeled internal standard. […] Samples were analyzed by liquid chromatography with tandem mass spectrometry (LC-MS/MS). Analyte concentrations were quantified by LC-MS/MS and interpolated from standard curves of authentic analyte. […] Activities were calculated based on analyte concentration, incubation time, and protein concentration. Enzymatic activity (pmol/minute/mg protein) was expressed as the formation of the analyte per final protein concentration per incubation time. Activity remaining was expressed as the enzymatic activity at each concentration point of the test article normalized by the solvent control mean activity. […]

OAT2 = target: T3, OAT2 (Homo sapiens, UniProt Q9Y694); assay: Inhibition of OAT2 mediated transport of creatinine in transfected MDCK-II cells (Example 3); assay type: in vitro ADME; conditions: MDCK-II, read-out: Maximum inhibition of OAT2 mediated transport of creatinine
T3 construct: expressed in transfected cells; host or cells: MDCK-II
T3 sequence (Q9Y694 1-548): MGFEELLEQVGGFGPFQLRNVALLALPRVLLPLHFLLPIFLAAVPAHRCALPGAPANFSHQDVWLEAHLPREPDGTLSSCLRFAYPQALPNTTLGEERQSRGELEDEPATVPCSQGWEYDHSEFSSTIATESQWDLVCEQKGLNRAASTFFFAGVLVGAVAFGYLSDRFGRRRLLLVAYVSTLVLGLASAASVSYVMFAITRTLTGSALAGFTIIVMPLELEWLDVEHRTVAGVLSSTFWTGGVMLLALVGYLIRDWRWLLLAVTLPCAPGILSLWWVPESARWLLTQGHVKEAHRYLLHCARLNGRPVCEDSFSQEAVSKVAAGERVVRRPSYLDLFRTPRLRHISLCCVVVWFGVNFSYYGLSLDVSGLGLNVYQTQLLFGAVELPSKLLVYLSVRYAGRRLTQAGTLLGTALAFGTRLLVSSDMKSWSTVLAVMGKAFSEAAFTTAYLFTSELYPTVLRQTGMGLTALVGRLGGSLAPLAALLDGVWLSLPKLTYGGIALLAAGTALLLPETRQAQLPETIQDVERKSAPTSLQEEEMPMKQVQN
Description: Substrate dependent inhibition is common among transporters including MATE1 and MATE2-K. In this study, creatinine was used as the probe substrate to assess the inhibitory potency of Tucatinib and ONT-993. OAT2, OCT2, OCT3, MATE1, and MATE2-K are the renal transporters identified to transport creatinine. Tucatinib and its metabolite ONT-993 were tested as potential inhibitors of OAT2, OCT2, MATE1, and MATE2-K mediated transport using creatinine as a probe substrate.
For this study, MDCK-II were maintained in DMEM with low glucose and 10% FBS. Cells were seeded at 60K±10K cells/well on 96-well, transwell membrane plates approximately 24 hours before transfection. Transport assays were carried out approximately 48 hours after transfection. Cells were transfected and treated to express the transporter of interest or treated with a control vector. The transport of creatinine was determined by radiometric detection.
Net transporter mediated uptake of the substrate by each transporter was calculated as follows: Net Transporter Mediated Substrate Uptake (pmol/min/cm^2)=(Cellular accumulation in the presence of the transporter)−(Mean cellular accumulation in the absence of the transporter.
Percent inhibition was calculated as follows: Percent inhibition=100−(100*(transporter mediated uptake)with inhibition/(transporter mediated uptake)without inhibition) […]

MATE1/2K = assay: Phase 1 drug-drug interaction study: effect of tucatinib on metformin pharmacokinetics (Example 1); conditions: healthy subjects, tucatinib 300 mg bid
CYP3A4 [4] = target: T2, CYP3A4; assay: In vitro time-dependent inhibition of CYP3A4 (background statement); assay type: in vitro ADME
CYP2C9 = CYP2C9 (Homo sapiens, UniProt P11712); assay: Ki determination in pooled human liver microsomes, diclofenac 4'-hydroxylase (Example 5); assay type: in vitro ADME; set-up: endogenous in cells; host or cells: healthy human subjects, in vivo
Description: as §1

T2 sequence (P08684 whole entry): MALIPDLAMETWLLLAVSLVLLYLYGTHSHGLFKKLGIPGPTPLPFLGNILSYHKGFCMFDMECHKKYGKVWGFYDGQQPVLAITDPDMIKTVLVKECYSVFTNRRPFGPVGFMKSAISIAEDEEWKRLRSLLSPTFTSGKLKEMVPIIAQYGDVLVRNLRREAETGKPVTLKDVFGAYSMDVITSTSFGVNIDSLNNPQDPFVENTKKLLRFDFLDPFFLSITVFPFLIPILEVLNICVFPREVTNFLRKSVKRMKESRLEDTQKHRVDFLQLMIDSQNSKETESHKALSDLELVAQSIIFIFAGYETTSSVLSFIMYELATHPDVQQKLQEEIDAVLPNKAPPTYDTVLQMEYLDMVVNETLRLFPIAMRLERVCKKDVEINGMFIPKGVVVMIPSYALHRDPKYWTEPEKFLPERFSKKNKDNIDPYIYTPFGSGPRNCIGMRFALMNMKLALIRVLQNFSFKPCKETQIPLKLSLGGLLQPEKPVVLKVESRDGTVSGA
Sequence of CYP2C9 (P11712 whole entry): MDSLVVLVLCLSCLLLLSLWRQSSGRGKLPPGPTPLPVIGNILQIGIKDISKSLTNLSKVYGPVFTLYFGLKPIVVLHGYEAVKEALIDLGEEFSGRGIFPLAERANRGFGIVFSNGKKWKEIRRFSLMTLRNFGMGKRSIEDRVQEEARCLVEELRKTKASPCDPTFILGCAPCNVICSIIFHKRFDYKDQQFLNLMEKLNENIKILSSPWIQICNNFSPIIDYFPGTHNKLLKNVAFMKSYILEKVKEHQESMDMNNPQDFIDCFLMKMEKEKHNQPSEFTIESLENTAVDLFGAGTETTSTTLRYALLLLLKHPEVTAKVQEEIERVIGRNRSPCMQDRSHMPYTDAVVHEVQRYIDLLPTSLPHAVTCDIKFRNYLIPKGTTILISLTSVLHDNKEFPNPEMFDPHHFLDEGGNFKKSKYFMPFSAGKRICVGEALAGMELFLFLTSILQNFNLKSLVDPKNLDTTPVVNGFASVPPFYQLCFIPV
Sequence of MATE2K (Q86VL8 1-566 isoform Q86VL8-3): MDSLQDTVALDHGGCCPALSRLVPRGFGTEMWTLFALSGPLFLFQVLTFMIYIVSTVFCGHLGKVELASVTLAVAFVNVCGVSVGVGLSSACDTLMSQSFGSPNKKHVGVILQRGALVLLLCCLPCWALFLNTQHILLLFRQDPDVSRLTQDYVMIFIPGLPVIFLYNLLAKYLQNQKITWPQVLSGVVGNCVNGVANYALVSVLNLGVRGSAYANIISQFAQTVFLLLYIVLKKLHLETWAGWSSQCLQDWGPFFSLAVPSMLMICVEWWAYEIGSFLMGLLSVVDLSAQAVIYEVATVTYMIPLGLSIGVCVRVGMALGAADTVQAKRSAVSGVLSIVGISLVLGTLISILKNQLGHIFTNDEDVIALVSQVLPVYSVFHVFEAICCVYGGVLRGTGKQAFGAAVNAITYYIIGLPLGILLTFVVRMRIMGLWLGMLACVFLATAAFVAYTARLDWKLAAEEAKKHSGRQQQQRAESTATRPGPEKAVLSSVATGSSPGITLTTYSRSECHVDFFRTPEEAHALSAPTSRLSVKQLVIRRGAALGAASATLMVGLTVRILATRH
Sequence of bile salt export pump (BSEP) (O95342 whole entry, species assumed): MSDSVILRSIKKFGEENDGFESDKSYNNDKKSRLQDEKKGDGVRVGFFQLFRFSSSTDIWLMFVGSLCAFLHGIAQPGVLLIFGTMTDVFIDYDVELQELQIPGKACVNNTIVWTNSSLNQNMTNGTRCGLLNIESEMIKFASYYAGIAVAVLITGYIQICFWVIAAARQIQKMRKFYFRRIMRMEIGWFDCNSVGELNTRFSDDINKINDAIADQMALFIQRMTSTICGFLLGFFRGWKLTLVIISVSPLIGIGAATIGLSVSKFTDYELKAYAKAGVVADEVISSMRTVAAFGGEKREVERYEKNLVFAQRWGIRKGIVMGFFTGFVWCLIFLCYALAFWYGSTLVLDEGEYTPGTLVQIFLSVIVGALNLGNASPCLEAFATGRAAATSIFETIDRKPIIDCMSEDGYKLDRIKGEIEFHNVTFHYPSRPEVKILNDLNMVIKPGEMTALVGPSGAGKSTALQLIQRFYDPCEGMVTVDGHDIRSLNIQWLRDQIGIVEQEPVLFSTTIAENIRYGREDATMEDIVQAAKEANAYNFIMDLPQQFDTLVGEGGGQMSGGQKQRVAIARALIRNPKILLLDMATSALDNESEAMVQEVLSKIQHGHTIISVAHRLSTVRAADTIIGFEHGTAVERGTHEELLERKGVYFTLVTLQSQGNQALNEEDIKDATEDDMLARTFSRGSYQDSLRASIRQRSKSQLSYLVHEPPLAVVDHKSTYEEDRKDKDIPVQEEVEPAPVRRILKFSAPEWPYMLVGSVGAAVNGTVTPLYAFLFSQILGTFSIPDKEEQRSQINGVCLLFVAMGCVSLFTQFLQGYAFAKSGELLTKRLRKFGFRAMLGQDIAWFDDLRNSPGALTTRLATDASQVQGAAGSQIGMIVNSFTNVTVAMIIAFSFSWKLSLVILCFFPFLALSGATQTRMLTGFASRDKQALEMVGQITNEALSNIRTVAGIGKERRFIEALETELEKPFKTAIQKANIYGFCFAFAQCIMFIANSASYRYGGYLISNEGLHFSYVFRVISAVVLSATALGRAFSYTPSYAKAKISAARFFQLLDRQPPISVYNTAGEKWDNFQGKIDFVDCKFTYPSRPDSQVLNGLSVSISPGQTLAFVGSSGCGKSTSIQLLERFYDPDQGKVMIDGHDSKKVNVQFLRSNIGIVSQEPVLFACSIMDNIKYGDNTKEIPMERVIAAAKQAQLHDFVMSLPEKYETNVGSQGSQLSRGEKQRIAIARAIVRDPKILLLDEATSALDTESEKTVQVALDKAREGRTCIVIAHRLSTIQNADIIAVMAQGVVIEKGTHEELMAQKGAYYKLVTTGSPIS

Compound: Cc1cc(Nc2ncnc3ccc(NC4=NC(C)(C)CO4)cc23)ccc1Oc1ccn2ncnc2c1 [tucatinib]
- IC50 (MATE1): 340 nM
- IC50 (MATE2K): 140 nM
- Induction of in vitro enzyme activity or messenger ribonucleic acid, CYP1A2 (CYP1A2): did not induce
- Cmax [1]: 1000 to 2000 nM
- IC50 [2]: 8480 nM
- Inhibition mechanism, CYP3A4 (CYP3A4 [3]): competitive inhibition
- Ki (CYP3A4 [3]; marker substrate midazolam): 810 nM and 805 nM
- inhibition at 10 µM (OAT2): 14.7%
- Inhibition of the renal OCT2/MATE1/MATE2-K pathway in vivo (MATE1/2K): weak inhibitor
- Time-dependent inhibition of CYP3A4 (CYP3A4 [4]): no time-dependent inhibition
- Inhibition mechanism, CYP2C9 (CYP2C9): competitive inhibition
- Ki (CYP2C9; marker substrate diclofenac): 4570 nM

— patent publication US20220193076A1, “METHODS OF TREATING BREAST CANCER WITH TUCATINIB” (Seagen Inc., priority 2019, published 2022)
